Reference: patent publication US20240158446A1, “CYCLIC COMPOUND HAVING SELECTIVE INHIBITORY ACTION ON KRAS OVER HRAS AND NRAS” (CHUGAI SEIYAKU KABUSHIKI KAISHA, priority 2021, published 2024)
pIC50, pKd: −log10 of the molar value.

How the values were obtained:
[1] = biological target: GDP-bound KRAS wild-type protein (Homo sapiens, UniProt P01116); test: Binding to KRAS by surface plasmon resonance (SPR), Single Cycle Kinetics; conditions: SPR, Single Cycle Kinetics, GDP-bound KRAS wild-type protein; read-out: KRAS KD
[2] = biological target: GDP-bound HRAS wild-type protein (Homo sapiens, UniProt P01112); test: Binding to HRAS by surface plasmon resonance (SPR), Single Cycle Kinetics; conditions: SPR, GDP-bound HRAS wild-type protein vs GDP-bound KRAS wild-type protein
[3] = tested on: human lung cancer strain NCI-H441;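 further: cell proliferation inhibition after four days measured by CellTiter-Glo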
[4] = biological target: GDP-bound NRAS wild-type protein (Homo sapiens, UniProt P01111); test: Binding to NRAS by surface plasmon resonance (SPR), Single Cycle Kinetics; conditions: SPR, GDP-bound NRAS wild-type protein vs GDP-bound KRAS wild-type protein
Chain of GDP-bound NRAS wild-type protein (P01111 whole entry): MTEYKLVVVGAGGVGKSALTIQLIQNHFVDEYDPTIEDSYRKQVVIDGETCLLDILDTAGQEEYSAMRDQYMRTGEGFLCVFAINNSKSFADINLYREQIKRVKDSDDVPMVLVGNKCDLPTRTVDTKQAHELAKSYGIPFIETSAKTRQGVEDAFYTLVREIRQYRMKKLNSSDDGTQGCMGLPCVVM

Chain of GDP-bound HRAS wild-type protein (P01112 whole entry): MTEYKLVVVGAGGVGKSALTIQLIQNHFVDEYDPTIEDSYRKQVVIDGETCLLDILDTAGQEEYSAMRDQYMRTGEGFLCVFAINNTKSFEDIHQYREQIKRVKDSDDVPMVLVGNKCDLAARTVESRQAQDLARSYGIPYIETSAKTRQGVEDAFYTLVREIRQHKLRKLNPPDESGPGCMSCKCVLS
Chain of GDP-bound KRAS wild-type protein (P01116 whole entry): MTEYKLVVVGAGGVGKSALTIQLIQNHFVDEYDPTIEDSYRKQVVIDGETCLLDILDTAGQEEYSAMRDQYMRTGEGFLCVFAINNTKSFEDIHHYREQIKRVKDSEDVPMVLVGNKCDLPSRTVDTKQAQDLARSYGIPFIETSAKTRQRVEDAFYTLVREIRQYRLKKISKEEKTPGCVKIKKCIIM

SMILES | pKd [1] | HRAS/KRAS (ratio of KD value for HRAS to KD value for KRAS) [2] | pIC50 [3] | NRAS/KRAS (ratio of KD value for NRAS to KD value for KRAS) [4]
CCC[C@H]1C(=O)N[C@@H]([C@@H](C)CC)C(=O)N(C2CC2)CC(=O)N(C)[C@H]2C/C=C\CCN(C2=O)[C@@H](CC2CCCCC2)C(=O)N(C)CC(=O)N[C@@H](CCc2ccc(C(F)(F)F)c(OC)c2)C(=O)N2C[C@H](OCC)C[C@H]2C(=O)N(C)C2(CCC2)C(=O)N(C)[C@@H](C(CC)CC)C(=O)N(C)[C@H](C(=O)N(C)C)CC(=O)N1C [PP2337] | 8.49 | A (a compound having 10 or more and less than 20 is denoted as A) | 7.47 | A (a compound having 10 or more and less than 20 is denoted as A)
CCOC[C@H]1C(=O)N[C@@H]([C@@H](C)CC)C(=O)N2CCC[C@H]2C(=O)N(C)[C@H]2C/C=C\CCN(C2=O)[C@@H](CC2CCC(F)(F)CC2)C(=O)N(C)CC(=O)N[C@@H](CCc2ccc(C(F)(F)F)c(OC)c2)C(=O)N2C[C@H](OCC)C[C@H]2C(=O)N(C)C2(CCC2)C(=O)N(C)[C@@H](C(CC)CC)C(=O)N(C)[C@H](C(=O)N(C)C)CC(=O)N1C [PP2355] | 8.41 | A (a compound having 10 or more and less than 20 is denoted as A) | 6.99 | AA (a compound having 20 or more is denoted as AA)
CCC[C@H]1C(=O)N[C@@H]([C@@H](C)CC)C(=O)N2CCC[C@H]2C(=O)N(C)[C@H]2C/C=C\CCN(C2=O)[C@@H](CC2CCC(F)(F)CC2)C(=O)N(C)CC(=O)N[C@@H](CCc2ccc(C(F)(F)F)c(OC)c2)C(=O)N2C[C@H](OCC)C[C@H]2C(=O)N(C)C2(CCC2)C(=O)N(C)[C@@H](C2CCCC2)C(=O)N(C)[C@H](C(=O)N(C)C)CC(=O)N1C [PP2356] | 9.03 | A (a compound having 10 or more and less than 20 is denoted as A) | 7.83 | A (a compound having 10 or more and less than 20 is denoted as A)
CCCOC[C@H]1C(=O)N[C@@H]([C@@H](C)CC)C(=O)N2CCC[C@H]2C(=O)N(C)[C@H]2C/C=C\CCN(C2=O)[C@@H](CC2CCC(F)(F)CC2)C(=O)N(C)CC(=O)N[C@@H](CCc2ccc(C(F)(F)F)c(OC)c2)C(=O)N2C[C@H](OCC)C[C@H]2C(=O)N(C)C2(CCC2)C(=O)N(C)[C@@H](C2CCCC2)C(=O)N(C)[C@H](C(=O)N(C)C)CC(=O)N1C [PP2357] | 8.92 | B (a compound having 3 or more and less than 10 is denoted as B) | 7.22 | A (a compound having 10 or more and less than 20 is denoted as A)
CCC[C@H]1C(=O)N[C@@H]([C@@H](C)CC)C(=O)N(C)CC(=O)N(C)[C@H]2C/C=C\CCN(C2=O)[C@@H](Cc2ccc(C(F)(F)F)cc2)C(=O)N(C)CC(=O)N[C@@H](CCc2ccc(C(F)(F)F)c(OC)c2)C(=O)N2C[C@@H](C)C[C@H]2C(=O)N(C)C2(CCC2)C(=O)N(C)[C@@H](C2CCCC2)C(=O)N(C)[C@H](C(=O)N(C)C)CC(=O)N1C [PP2358] | 10.70 | B (a compound having 3 or more and less than 10 is denoted as B) | 8.60 | A (a compound having 10 or more and less than 20 is denoted as A)
CCOC[C@H]1C(=O)N[C@@H]([C@@H](C)CC)C(=O)N(C)CC(=O)N(C)[C@H]2C/C=C\CCN(C2=O)[C@@H](Cc2ccc(C(F)(F)F)cc2)C(=O)N(C)CC(=O)N[C@@H](CCc2ccc(C(F)(F)F)c(OC)c2)C(=O)N2C[C@@H](C)C[C@H]2C(=O)N(C)C2(CCC2)C(=O)N(C)[C@@H](C2CCCC2)C(=O)N(C)[C@H](C(=O)N(C)C)CC(=O)N1C [PP2359] | 10.70 | B (a compound having 3 or more and less than 10 is denoted as B) | 8.12 | A (a compound having 10 or more and less than 20 is denoted as A)
CCC[C@H]1C(=O)N[C@@H]([C@@H](C)CC)C(=O)N(C2CC2)CC(=O)N(C)[C@H]2C/C=C\CCN(C2=O)[C@@H](Cc2ccc(C(F)(F)F)cc2)C(=O)N(C)CC(=O)N[C@@H](CCc2ccc(C(F)(F)F)c(OC)c2)C(=O)N2C[C@@H](C)C[C@H]2C(=O)N(C)C2(CCC2)C(=O)N(C)[C@@H](C2CCCC2)C(=O)N(C)[C@H](C(=O)N(C)C)CC(=O)N1C [PP2360] | 9.80 | B (a compound having 3 or more and less than 10 is denoted as B) | 8.54 | A (a compound having 10 or more and less than 20 is denoted as A)
CCC[C@H]1C(=O)N[C@@H]([C@@H](C)CC)C(=O)N2CCC[C@H]2C(=O)N(C)[C@H]2C/C=C\CCN(C2=O)[C@@H](Cc2ccc(C(F)(F)F)cc2)C(=O)N(C)CC(=O)N[C@@H](CCc2ccc(C(F)(F)F)c(OC)c2)C(=O)N2C[C@@H](C)C[C@H]2C(=O)N(C)C2(CCC2)C(=O)N(C)[C@@H](C2CCCC2)C(=O)N(C)[C@H](C(=O)N(C)C)CC(=O)N1C [PP2362] | 10.12 | A (a compound having 10 or more and less than 20 is denoted as A) | 8.32 | A (a compound having 10 or more and less than 20 is denoted as A)
CCOC[C@H]1C(=O)N[C@@H]([C@@H](C)CC)C(=O)N2CCC[C@H]2C(=O)N(C)[C@H]2C/C=C\CCN(C2=O)[C@@H](Cc2ccc(C(F)(F)F)cc2)C(=O)N(C)CC(=O)N[C@@H](CCc2ccc(C(F)(F)F)c(OC)c2)C(=O)N2C[C@@H](C)C[C@H]2C(=O)N(C)C2(CCC2)C(=O)N(C)[C@@H](C2CCCC2)C(=O)N(C)[C@H](C(=O)N(C)C)CC(=O)N1C [PP2363] | 10.21 | B (a compound having 3 or more and less than 10 is denoted as B) | 8.12 | A (a compound having 10 or more and less than 20 is denoted as A)
CCC[C@H]1C(=O)N[C@@H]([C@@H](C)CC)C(=O)N(C)CC(=O)N(C)[C@H]2C/C=C\CCN(C2=O)[C@@H](Cc2ccc(C)cc2)C(=O)N(C)CC(=O)N[C@@H](CCc2ccc(C(F)(F)F)c(OC)c2)C(=O)N2C[C@@H](C)C[C@H]2C(=O)N(C)C2(CCC2)C(=O)N(C)[C@@H](C2CCCC2)C(=O)N(C)[C@H](C(=O)N(C)C)CC(=O)N1C [PP2364] | 10.80 | B (a compound having 3 or more and less than 10 is denoted as B) | 8.34 | A (a compound having 10 or more and less than 20 is denoted as A)
CCCOC[C@H]1C(=O)N[C@@H]([C@@H](C)CC)C(=O)N(C)CC(=O)N(C)[C@H]2C/C=C\CCN(C2=O)[C@@H](Cc2ccc(C)cc2)C(=O)N(C)CC(=O)N[C@@H](CCc2ccc(C(F)(F)F)c(OC)c2)C(=O)N2C[C@@H](C)C[C@H]2C(=O)N(C)C2(CCC2)C(=O)N(C)[C@@H](C2CCCC2)C(=O)N(C)[C@H](C(=O)N(C)C)CC(=O)N1C [PP2365] | 10.70 | B (a compound having 3 or more and less than 10 is denoted as B) | 8.48 | A (a compound having 10 or more and less than 20 is denoted as A)
CCC[C@H]1C(=O)N[C@@H]([C@@H](C)CC)C(=O)N(C2CC2)CC(=O)N(C)[C@H]2C/C=C\CCN(C2=O)[C@@H](Cc2ccc(C)cc2)C(=O)N(C)CC(=O)N[C@@H](CCc2ccc(C(F)(F)F)c(OC)c2)C(=O)N2C[C@@H](C)C[C@H]2C(=O)N(C)C2(CCC2)C(=O)N(C)[C@@H](C2CCCC2)C(=O)N(C)[C@H](C(=O)N(C)C)CC(=O)N1C [PP2366] | 10.32 | A (a compound having 10 or more and less than 20 is denoted as A) | 8.35 | A (a compound having 10 or more and less than 20 is denoted as A)
CCCOC[C@H]1C(=O)N[C@@H]([C@@H](C)CC)C(=O)N(C2CC2)CC(=O)N(C)[C@H]2C/C=C\CCN(C2=O)[C@@H](Cc2ccc(C)cc2)C(=O)N(C)CC(=O)N[C@@H](CCc2ccc(C(F)(F)F)c(OC)c2)C(=O)N2C[C@@H](C)C[C@H]2C(=O)N(C)C2(CCC2)C(=O)N(C)[C@@H](C2CCCC2)C(=O)N(C)[C@H](C(=O)N(C)C)CC(=O)N1C [PP2367] | 10.12 | B (a compound having 3 or more and less than 10 is denoted as B) | 8.68 | A (a compound having 10 or more and less than 20 is denoted as A)
CCC[C@H]1C(=O)N[C@@H]([C@@H](C)CC)C(=O)N2CCC[C@H]2C(=O)N(C)[C@H]2C/C=C\CCN(C2=O)[C@@H](Cc2ccc(C)cc2)C(=O)N(C)CC(=O)N[C@@H](CCc2ccc(C(F)(F)F)c(OC)c2)C(=O)N2C[C@@H](C)C[C@H]2C(=O)N(C)C2(CCC2)C(=O)N(C)[C@@H](C2CCCC2)C(=O)N(C)[C@H](C(=O)N(C)C)CC(=O)N1C [PP2368] | 10.35 | A (a compound having 10 or more and less than 20 is denoted as A) | 8.39 | A (a compound having 10 or more and less than 20 is denoted as A)
